Test results taken from patent US20040121316A1 (priority 2002, published 2004).
Read-outs that look alike come from different tables or passages of the source.

Legend:
WT HIV-1 [1] = assay: microbe, parasite or virus in culture; assay type: cell-based; conditions: Human immunodeficiency virus 1, MT4, read-out: Cell-based assay (MT-4) EC50/nM WT
[2] = tested on: recombinant HIV-1 10I 48V 54V 82A; assay: microbe, parasite or virus in culture; assay type: cell-based; conditions: Human immunodeficiency virus 1, MT4, read-out: Cell-based assay (MT-4) EC50/nM 48V 54V 82A
[3] = tested on: recombinant HIV-1 46I 47V 50V; assay: microbe, parasite or virus in culture; assay type: cell-based; conditions: Human immunodeficiency virus 1, MT4, read-out: Cell-based assay (MT-4) EC50/nM 47I 50V
[4] = tested on: recombinant HIV-1 30N 50S 82I 88D; assay: microbe, parasite or virus in culture; assay type: cell-based; conditions: Human immunodeficiency virus 1, MT4, read-out: Cell-based assay (MT-4) EC50/nM 30N 82I 88D
[5] = tested on: recombinant HIV-1 10I 48V 71V 82A 90M; assay: microbe, parasite or virus in culture; assay type: cell-based; conditions: Human immunodeficiency virus 1, MT4, read-out: Cell-based assay (MT-4) EC50/nM 48V 82A 90M
[6] = tested on: recombinant HIV-1 48V 54V 71V 82S; assay: microbe, parasite or virus in culture; assay type: cell-based; conditions: Human immunodeficiency virus 1, MT4, read-out: Cell-based assay (MT-4) EC50/nM 48V 54V 82S
[7] = tested on: recombinant HIV-1 10I 84V 71V 73S 90M; assay: microbe, parasite or virus in culture; assay type: cell-based; conditions: Human immunodeficiency virus 1, MT4, read-out: Cell-based assay (MT-4) EC50/nM 84V 90M
HIV-1 protease 84V90M = target: T1, HIV-1 protease 84V90M (Human immunodeficiency virus type 1 group M subtype B, UniProt P04585, I572V/L578M); assay: Enzymatic assay, IC50 against 84V90M mutant protease; assay type: biochemical
T1 construct: synthetic hexapeptide substrate cleavage by HIV-1 protease

[8] = tested on: wild-type HIV-1 strain IIIB; assay: microbe, parasite or virus in culture; assay type: cell-based; conditions: Human immunodeficiency virus 1, IIIB
mutant HIV-1 I84V/L90M = assay: Resistance Evaluation, I84V/L90M fold change; assay type: cell-based; conditions: EC50 of mutant I84V/L90M relative to wild type; class symbols
in vitro = conditions: human
[9] = target: T2, recombinant HIV-1 protease (Human immunodeficiency virus type 1 group M subtype B, UniProt P04585); assay: biochemical
T2 construct: Enzyme: recombinant HIV-1 protease expressed in E.Coli; purchased Bachem California, Inc. H-9040; host or cells: E. coli

WT HIV protease = target: T3, WT HIV protease (Human immunodeficiency virus type 1 group M subtype B, UniProt P04585); assay: biochemical; parameters: species or system HIV-1
T3 construct: synthetic hexapeptide substrate cleavage by HIV-1 protease

84V90M HIV protease = 84V90M HIV protease (Human immunodeficiency virus type 1 group M subtype B, UniProt P04585, I572V/L578M); assay: biochemical; parameters: species or system HIV-1
WT HIV-1 [10] = assay: microbe, parasite or virus in culture; assay type: cell-based
HIV-1 84V90M = assay: microbe, parasite or virus in culture; assay type: cell-based; conditions: MT-4, 84V90M, read-out: Cell-based assay (MT-4) EC50/nM 84V90M
HIV-1 30N82I88D = assay: microbe, parasite or virus in culture; assay type: cell-based; conditions: MT-4, 30N82I88D, read-out: Cell-based assay (MT-4) EC50/nM 30N82I88D
HIV-1 48V54V82A = assay: microbe, parasite or virus in culture; assay type: cell-based; conditions: MT-4, 48V54V82A, read-out: Cell-based assay (MT-4) EC50/nM 48V54V82A
HIV-1 46I50V = assay: microbe, parasite or virus in culture; assay type: cell-based; conditions: MT-4, 46I50V, read-out: Cell-based assay (MT-4) EC50/nM 46I50V
[11] = Human immunodeficiency virus 1, read-out: Cell-based assay (MT-4) EC50/nM WT
[12] = Enzymatic assay, 84V90M, read-out: 84V90M IC50/nM
[13] = read-out: Cell-based assay (MT-4) EC50/nM WT

CCOP(=O)(COc1ccc(CC2C(O)C(O)C(Cc3ccc(OC)cc3)N(Cc3cccc(N)c3)C(=O)N2Cc2cccc(N)c2)cc1)OCC (stereo not drawn) [OCH3/Ph-mNH2/OCH2PO3Et2]
EC50 (WT HIV-1 [1]): 63 nM | EC50 [2]: 202 nM | EC50 [3]: 36 nM | EC50 [4]: 18 nM | EC50 [5]: 102 nM | EC50 [6]: 117 nM | EC50 [7]: 535 nM | IC50 (HIV-1 protease 84V90M): 56 nM

CCOP(=O)(CCNC(=O)Oc1ccc(CC2C(O)C(O)C(Cc3ccc(OC)cc3)N(Cc3ccc(O)cc3)C(=O)N2Cc2ccc(O)cc2)cc1)OCC (stereo not drawn) [OCH3/Ph-pOH/OCONH(CH2)2PO3Et2]
EC50 (WT HIV-1 [1]): 33 nM | EC50 [2]: 74 nM | EC50 [3]: 223 nM | EC50 [4]: 31 nM | EC50 [5]: 55 nM | EC50 [6]: 51 nM | EC50 [7]: 495 nM | IC50 (HIV-1 protease 84V90M): 49 nM

CCOC(=O)C(C)NP(=O)(COc1ccc(CC(NC(=O)OC2COC3OCCC23)C(O)CN(CC(C)C)S(=O)(=O)c2ccc(OC)cc2)cc1)NC(C)C(=O)OCC (stereo not drawn) [drawing 612 R1=Ala-Et R2=Ala-Et]
EC50 [8]: 50 to 500 nM | I84V/L90M fold change (mutant HIV-1 I84V/L90M): − (≦3) | CC50 (in vitro): > 50000 nM

Nc1n[nH]c2ccc(CN3C(=O)N(Cc4cccc(OCP(=O)(O)O)c4)C(Cc4ccccc4)C(O)C(O)C3Cc3ccccc3)cc12 (stereo not drawn) [m-OCH2PO3H2]
Ki ([9]; Ki (nM)): 0.254 nM | IC50 (WT HIV protease): 8.3 nM | IC50 (84V90M HIV protease): 33 nM | EC50 (WT HIV-1 [10]; [11]): > 12000 nM

Nc1n[nH]c2ccc(CN3C(=O)N(Cc4cccc(OCP(=O)(O)Oc5ccccc5)c4)C(Cc4ccccc4)C(O)C(O)C3Cc3ccccc3)cc12 (stereo not drawn) [m-OCH2PO3HPh]
Ki ([9]; Ki (nM), Enzymatic assay): 0.644 nM | IC50 (WT HIV protease): 17 nM | IC50 (84V90M HIV protease): 65 nM | EC50 (WT HIV-1 [10]; [11]): 1740 nM | EC50 (HIV-1 84V90M; Human immunodeficiency virus 1): > 6000 nM

Nc1n[nH]c2ccc(CN3C(=O)N(Cc4cccc(OCP(=O)(Oc5ccccc5)Oc5ccccc5)c4)C(Cc4ccccc4)C(O)C(O)C3Cc3ccccc3)cc12 (stereo not drawn) [m-OCH2PO3Ph2]
Ki ([9]; Ki (nM), Enzymatic assay): 0.543 nM | IC50 (WT HIV protease): 10 nM | IC50 (84V90M HIV protease): 42 nM | EC50 (WT HIV-1 [10]; [11]): 1350 nM | EC50 (HIV-1 84V90M; Human immunodeficiency virus 1): > 6000 nM | EC50 (HIV-1 30N82I88D; Human immunodeficiency virus 1): 1540 nM | EC50 (HIV-1 48V54V82A; Human immunodeficiency virus 1): 2180 nM | EC50 (HIV-1 46I50V; Human immunodeficiency virus 1): 3380 nM

CCCCOC(=O)C(C)NP(=O)(COc1cccc(CN2C(=O)N(Cc3ccc4[nH]nc(N)c4c3)C(Cc3ccccc3)C(O)C(O)C2Cc2ccccc2)c1)NC(C)C(=O)OCCCC (stereo not drawn) [m-bis-Ala-Bu]
Ki ([9]; read-out: Ki): 1.28 nM | IC50 (WT HIV protease; read-out: WT IC50/nM): 18 nM | IC50 (84V90M HIV protease; [12]): 103 nM | EC50 (WT HIV-1 [10]; [13]): 1080 nM | EC50 (HIV-1 84V90M): > 6000 nM | EC50 (HIV-1 30N82I88D): 2360 nM | EC50 (HIV-1 48V54V82A): 1850 nM | EC50 (HIV-1 46I50V): 1540 nM

CCOC(=O)C(C)NP(=O)(COc1cccc(CN2C(=O)N(Cc3ccc4[nH]nc(N)c4c3)C(Cc3ccccc3)C(O)C(O)C2Cc2ccccc2)c1)NC(C)C(=O)OCC (stereo not drawn) [m-bis-Ala-Et]
Ki ([9]; read-out: Ki): 1.99 nM | IC50 (WT HIV protease; read-out: WT IC50/nM): 31 nM | IC50 (84V90M HIV protease; [12]): 202 nM | EC50 (WT HIV-1 [10]; [13]): 5620 nM | EC50 (HIV-1 84V90M): > 6000 nM | EC50 (HIV-1 30N82I88D): 1850 nM

Nc1n[nH]c2ccc(CN3C(=O)N(Cc4ccc(OCP(=O)(O)O)cc4)C(Cc4ccccc4)C(O)C(O)C3Cc3ccccc3)cc12 (stereo not drawn) [p-OCH2PO3H2]
Ki ([9]; Ki (nM)): > 5 nM | IC50 (WT HIV protease): 551 nM | IC50 (84V90M HIV protease): 1660 nM | EC50 (WT HIV-1 [10]; [11]): > 12000 nM
